How the values were obtained:
Assay type in all cases: cell-based
[1] = tested on: NCI-H460; test: NCI in vitro DTP human cell line screen, NCI-H460; details: Non-Small Cell Lung Cancer, 1.00E−5 Molar
Protocol: (§1) Then, a cell toxicity assay of the cancer lines made by National Cancer Institute will be discussed as follows. The cell toxicity assay is performed by choosing ten compounds (existing certification numbers) from the 59 compounds disclosed in the present invention first.

[2] = tested on: SF-539; test: NCI in vitro DTP human cell line screen, SF-539; details: CNS Cancer, 1.00E−5 Molar
Protocol: as §1

[3] = tested on: SNB-75; test: NCI in vitro DTP human cell line screen, SNB-75; details: CNS Cancer, 1.00E−5 Molar
Protocol: as §1

[4] = tested on: LOX IMVI; test: NCI in vitro DTP human cell line screen, LOX IMVI; details: Melanoma, 1.00E−5 Molar
Protocol: as §1

[5] = tested on: M14; test: NCI in vitro DTP human cell line screen, M14; details: Melanoma, 1.00E−5 Molar
Protocol: as §1

[6] = tested on: SK-MEL-2; test: NCI in vitro DTP human cell line screen, SK-MEL-2; details: Melanoma, 1.00E−5 Molar
Protocol: as §1

[7] = tested on: IGROV1; test: NCI in vitro DTP human cell line screen, IGROV1; details: Ovarian Cancer, 1.00E−5 Molar
Protocol: as §1

[8] = tested on: OVCAR-3; test: NCI in vitro DTP human cell line screen, OVCAR-3; details: Ovarian Cancer, 1.00E−5 Molar
Protocol: as §1

[9] = tested on: OVCAR-5; test: NCI in vitro DTP human cell line screen, OVCAR-5; details: Ovarian Cancer, 1.00E−5 Molar
Protocol: as §1

[10] = tested on: NCI/ADR-RES; test: NCI in vitro DTP human cell line screen, NCI/ADR-RES; details: Ovarian Cancer, 1.00E−5 Molar
Protocol: as §1

[11] = tested on: 786-0; test: NCI in vitro DTP human cell line screen, 786-0; details: Renal Cancer, 1.00E−5 Molar
Protocol: as §1

[12] = tested on: ACHN; test: NCI in vitro DTP human cell line screen, ACHN; details: Renal Cancer, 1.00E−5 Molar
Protocol: as §1

[13] = tested on: TK-10; test: NCI in vitro DTP human cell line screen, TK-10; details: Renal Cancer, 1.00E−5 Molar
Protocol: as §1

[14] = tested on: PC-3; test: NCI in vitro DTP human cell line screen, PC-3; details: Prostate Cancer, 1.00E−5 Molar
Protocol: as §1

[15] = tested on: HS 578-T; test: NCI in vitro DTP human cell line screen, HS 578-T; details: Breast Cancer, 1.00E−5 Molar
Protocol: as §1

[16] = tested on: T-47D; test: NCI in vitro DTP human cell line screen, T-47D; details: Breast Cancer, 1.00E−5 Molar
Protocol: as §1

[17] = tested on: HEL299 fibroblast; test: MTT assay, HEL299 fibroblast
Source text: Please refer to FIG. 4C, various cell viabilities of the HEL299 cell lines can be obtained through the MTT assay while the compounds No. 1˜30 are used to treat HEL299 cell lines, wherein HEL299 cell lines are fibroblast.

| Structure (SMILES) | Growth Percent [1] | Growth Percent [2] | Growth Percent [3] | Growth Percent [4] | Growth Percent [5] | Growth Percent [6] | Growth Percent [7] | Growth Percent [8] | Growth Percent [9] | Growth Percent [10] | Growth Percent [11] | Growth Percent [12] | Growth Percent [13] | Growth Percent [14] | Growth Percent [15] | Growth Percent [16] | cell viabilities of HEL299 cell lines (MTT assay) ([17]; HEL299, normal fibroblast) | cytotoxicity effect on the normal fibroblast (in words) [17] |
| --- | --- | --- | --- | --- | --- | --- | --- | --- | --- | --- | --- | --- | --- | --- | --- | --- | --- | --- |
| CCCSc1ccc2c(=O)c3ccccc3sc2c1Cl [No. 3, 4-Chloro-3-(propylthio)-9H-thioxanthen-9-one] | 59.83% | 82.48% | 100.85% | 64.69% | 102.38% | 114.59% | 91.28% | 90.35% | 94.79% | 93.97% | 101.51% | 74.17% | 103.80% | 94.80% | 94.80% | 98.14% |  |  |
| O=c1c2ccccc2sc2c(Cl)c(SCc3ccccc3)ccc12 [No. 23, 3-(Benzylthio)-4-chloro-9H-thioxanthen-9-one] | 29.14% | 102.89% | 75.12% | 62.94% | 102.67% | 116.81% | 56.63% | 76.97% | 94.34% | 90.62% | 78.53% | 26.15% | 95.49% | 83.92% | 91.28% | 82.55% | 85.2 ± 5.26% |  |
| O=c1c2ccccc2sc2c(Cl)c(SCc3ccc(Cl)cc3)ccc12 [No. 26, 4-Chloro-3-(4-chlorobenzylthio)-9H-thioxanthen-9-one] | 106.85% | 96.81% | 96.90% | 97.16% | 101.01% | 90.37% | 104.47% | 130.11% | 102.23% | 100.89% | 106.48% | 91.82% | 100.13% | 93.28% | 108.61% | 87.73% |  |  |
| COc1ccc(CSc2ccc3c(=O)c4ccccc4sc3c2Cl)cc1 [No. 27, 4-Chloro-3-(4-methoxybenzylthio)-9H-thioxanthen-9-one] | 107.02% | 106.78% | 97.97% | 101.59% | 99.76% | 104.94% | 108.76% | 125.16% | 103.70% | 106.73% | 100.89% | 104.71% | 105.39% | 93.39% | 124.03% | 88.81% |  | without the cytotoxicity effect |

— patent publication US8410161B2, “Thioxanthone ring system derivatives” (National Defense Medical Center, priority 2010, dated 2013)
